Measured values reported in patent US11993596B2, “Fused tri-cyclic compound as PDE3/PDE4 dual inhibitor” (CHIA TAI TIANQING PHARMACEUTICAL GROUP CO., LTD., priority 2018, dated 2024).

Legend:
[1] = reported in literature; cited from earlier work
[2] = reported in literature; cited from earlier work; remark: listed apart in the source
[3] = system: TNF-α in human peripheral blood mononuclear cells (hPBMCs); experiment: Inhibitory activity against TNF-α in human peripheral blood mononuclear cells; type: cell-based; settings: PBMC, TNF-α in supernatant, 1 ng/mL LPS, 24 hours, read-out: hPBMC IC50
Excerpt: In Vitro Detection of the Inhibitory Activity of Compounds Against TNF-α in Human Peripheral Blood Mononuclear Cells
Experimental objective: to express the anti-inflammatory activity at the cellular level of the test compound based on the level of TNF-α in human peripheral blood mononuclear cells (hPBMCs).
Procedure: • 1. Normal human whole blood was collected into an EDTA anticoagulation tube; • 2. The PBMCs were separated by Ficoll density gradient centrifugation, and then counted. The cell concentration was adjusted to 2×10^6/mL; • 3. To each well of a U-bottomed 96-well plate were added 2×10^5 cells, 1 ng/mL LPS, and DMSO solutions of compound at concentrations of 100 μM, 10 μM, 1 μM, 100 nM, 10 nM, 1 nM, 100 pM and 10 pM, 200 μL per well; • 4. The mixture was incubated for 24 hours, and then the supernatant was collected; • 5. The level of TNF-α in supernatant was detected by ELIZA, Graphpad Prism software was used to fit inhibition curves and IC50 was calculated.

CYP1A2 = CYP1A2 (Homo sapiens (Human), UniProt P05177); experiment: biochemical; type: in vitro ADME
Procedure: (§1) Inhibitory Effect on the Activity of Isoenzymes (CYP1A2, CYP2C9, CYP2C19, CYP2D6 and CYP3A4) of Human Liver Microsomal Cytochrome P450
(§2) A total of 5 specific probe substrates of 5 isoenzymes of CYP, namely phenacetin (CYP1A2), diclofenac (CYP2C9), (S)-mephenytoin (CYP2C19), dextromethorphan (CYP2D6) and midazolam (CYP3A4) are each co-incubated with human liver microsomes and test compound, and then reduced nicotinamide adenine dinucleotide phosphate (NADPH) was added to initiate the reaction.

CYP2C9 = CYP2C9 (Homo sapiens (Human), UniProt P11712); experiment: Inhibition of human liver microsomal cytochrome P450 isoenzyme CYP2C9; type: in vitro ADME; settings: human liver microsomes, probe substrate diclofenac
Procedure: as §1, §2

CYP2C19 = CYP2C19 (Homo sapiens (Human), UniProt P33261); experiment: Inhibition of human liver microsomal cytochrome P450 isoenzyme CYP2C19; type: in vitro ADME; settings: human liver microsomes, probe substrate (S)-mephenytoin
Procedure: as §1, §2

CYP2D6 = CYP2D6 (Homo sapiens (Human), UniProt P10635); experiment: Inhibition of human liver microsomal cytochrome P450 isoenzyme CYP2D6; type: in vitro ADME; settings: human liver microsomes, probe substrate dextromethorphan
Procedure: as §1, §2

CYP3A4 = CYP3A4 (Homo sapiens (Human), UniProt P08684); experiment: Inhibition of human liver microsomal cytochrome P450 isoenzyme CYP3A4; type: in vitro ADME; settings: human liver microsomes, probe substrate midazolam
Procedure: as §1, §2

[4] = Pharmacokinetic experiment in beagle dogs; type: in vivo; settings: male, dog, plasma
Procedure: Pharmacokinetic Experiment in Beagle Dogs
In this study, male beagle dogs were selected as test animals, and liquid chromatography-tandem mass spectrometry (LC-MS/MS) method was used for quantitatively measuring the drug concentration in plasma of beagle dogs at different time points after intravenous injection or oral administration of compound WX036 so as to evaluate the pharmacokinetic characteristics of the compound WX036 in beagle dogs.
The clear solution of compound WX036 was injected into two 10-12 kg beagle dogs via the cephalic vein or saphenous vein, and the clear solution of test compound was administered intragastrically to two 10-12 kg beagle dogs (overnight fasted). The animals were all subjected to approximately 500 μL of blood collection each time from peripheral veins at 0.0333, 0.0833, 0.25, 0.5, 1, 2, 4, 6, 8, and 24 hours post-dose, and the blood was transferred into commercial centrifuge tubes containing 0.85-1.15 mg of K2 EDTA*2H2O anticoagulant, and plasma was taken by centrifugation at 3000 g for 10 minutes at 4° C. The plasma concentration was measured by LC-MS/MS method, and the relevant pharmacokinetic parameters were calculated by WinNonlin™ Version 6.3 (Pharsight, Mountain View, CA) pharmacokinetic software using non-compartmental model linear logarithmic trapezoid method.

[5] = intravenous injection 0.5 mg/kg

Chain of CYP2C19 (P33261 whole entry): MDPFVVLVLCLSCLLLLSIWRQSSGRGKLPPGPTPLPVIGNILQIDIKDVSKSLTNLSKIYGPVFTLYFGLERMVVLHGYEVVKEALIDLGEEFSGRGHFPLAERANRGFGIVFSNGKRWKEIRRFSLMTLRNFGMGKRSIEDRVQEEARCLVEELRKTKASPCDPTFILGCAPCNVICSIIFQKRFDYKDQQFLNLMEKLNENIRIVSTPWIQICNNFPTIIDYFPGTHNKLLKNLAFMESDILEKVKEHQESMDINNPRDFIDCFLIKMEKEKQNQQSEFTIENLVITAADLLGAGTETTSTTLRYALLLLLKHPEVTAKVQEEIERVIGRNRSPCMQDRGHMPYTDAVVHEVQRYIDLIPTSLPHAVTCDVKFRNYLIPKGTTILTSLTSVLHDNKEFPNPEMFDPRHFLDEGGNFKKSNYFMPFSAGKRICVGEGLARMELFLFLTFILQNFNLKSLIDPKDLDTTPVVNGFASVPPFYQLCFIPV
Chain of CYP3A4 (P08684 whole entry): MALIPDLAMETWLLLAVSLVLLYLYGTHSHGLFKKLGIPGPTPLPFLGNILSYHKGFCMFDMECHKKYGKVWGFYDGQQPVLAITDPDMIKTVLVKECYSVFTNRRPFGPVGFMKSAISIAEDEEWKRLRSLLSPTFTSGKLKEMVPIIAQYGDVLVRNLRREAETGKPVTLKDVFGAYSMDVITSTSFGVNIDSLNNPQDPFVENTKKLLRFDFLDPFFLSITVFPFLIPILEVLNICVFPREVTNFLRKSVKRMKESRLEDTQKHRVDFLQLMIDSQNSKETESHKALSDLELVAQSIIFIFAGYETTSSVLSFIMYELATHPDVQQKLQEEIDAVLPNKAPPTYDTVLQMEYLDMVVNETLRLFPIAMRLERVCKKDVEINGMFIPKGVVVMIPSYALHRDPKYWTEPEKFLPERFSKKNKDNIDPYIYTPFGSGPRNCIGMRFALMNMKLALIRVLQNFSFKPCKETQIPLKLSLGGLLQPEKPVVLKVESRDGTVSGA
Chain of CYP1A2 (P05177 whole entry): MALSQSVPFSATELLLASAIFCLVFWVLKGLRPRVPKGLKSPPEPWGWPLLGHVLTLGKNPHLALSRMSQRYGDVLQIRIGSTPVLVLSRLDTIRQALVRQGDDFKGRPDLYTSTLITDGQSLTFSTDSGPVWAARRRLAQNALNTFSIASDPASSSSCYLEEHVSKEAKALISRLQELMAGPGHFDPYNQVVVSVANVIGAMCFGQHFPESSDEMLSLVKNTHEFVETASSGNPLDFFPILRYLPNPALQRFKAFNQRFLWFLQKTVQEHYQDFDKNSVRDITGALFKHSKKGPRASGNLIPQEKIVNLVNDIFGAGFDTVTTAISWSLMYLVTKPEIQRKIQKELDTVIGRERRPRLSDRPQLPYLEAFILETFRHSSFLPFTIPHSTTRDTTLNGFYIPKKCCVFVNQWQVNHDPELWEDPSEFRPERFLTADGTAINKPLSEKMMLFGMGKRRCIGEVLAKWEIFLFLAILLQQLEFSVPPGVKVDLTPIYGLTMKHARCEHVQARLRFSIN
Chain of CYP2D6 (P10635 whole entry): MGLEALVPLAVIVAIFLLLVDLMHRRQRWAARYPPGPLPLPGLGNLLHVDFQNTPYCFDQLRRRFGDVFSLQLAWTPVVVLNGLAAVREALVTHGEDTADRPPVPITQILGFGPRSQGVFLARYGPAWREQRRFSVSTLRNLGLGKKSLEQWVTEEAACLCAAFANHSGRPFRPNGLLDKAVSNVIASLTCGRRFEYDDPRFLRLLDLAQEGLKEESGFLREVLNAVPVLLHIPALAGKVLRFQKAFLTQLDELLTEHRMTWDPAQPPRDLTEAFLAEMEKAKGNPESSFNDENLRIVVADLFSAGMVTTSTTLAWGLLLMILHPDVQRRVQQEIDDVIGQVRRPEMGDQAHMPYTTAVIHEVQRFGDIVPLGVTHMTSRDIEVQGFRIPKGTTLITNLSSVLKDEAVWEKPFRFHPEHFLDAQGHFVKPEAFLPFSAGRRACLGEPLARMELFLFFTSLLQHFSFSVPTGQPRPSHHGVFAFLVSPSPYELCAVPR
Chain of CYP2C9 (P11712 whole entry): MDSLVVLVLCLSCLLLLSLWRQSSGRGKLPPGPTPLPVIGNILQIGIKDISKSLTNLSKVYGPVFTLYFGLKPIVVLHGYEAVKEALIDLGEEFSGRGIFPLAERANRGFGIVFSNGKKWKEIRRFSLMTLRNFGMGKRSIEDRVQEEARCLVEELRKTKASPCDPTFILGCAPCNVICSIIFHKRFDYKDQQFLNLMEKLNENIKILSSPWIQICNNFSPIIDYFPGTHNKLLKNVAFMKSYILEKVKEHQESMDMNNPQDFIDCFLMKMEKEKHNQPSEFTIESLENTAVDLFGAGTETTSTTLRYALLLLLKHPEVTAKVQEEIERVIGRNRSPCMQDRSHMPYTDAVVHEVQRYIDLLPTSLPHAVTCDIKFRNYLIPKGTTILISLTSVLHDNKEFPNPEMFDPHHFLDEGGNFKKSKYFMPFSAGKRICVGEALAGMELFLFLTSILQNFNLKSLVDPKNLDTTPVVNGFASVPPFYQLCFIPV

Q: What does the source list for `COc1cc2c(cc1OC)-c1c/c(=N\c3c(C)cc(C)cc3C)n(CCNC(N)=O)c(=O)n1CC2` [RPL554]?
A: solubility [1]: poor; plasma clearance [2]: high

Q: Which solubility [1] does the source give for `COc1cc2c(cc1OC)-c1cc(Oc3c(C(C)C)cccc3C(C)C)nc(=O)n1CC2` [RPL565] here?
A: poor

Q: And the plasma clearance [2]?
A: high

Q: For `CCOc1cc2c(cc1OC)-c1c/c(=N\c3c(C)cc(C)cc3C)n(CCNc3nc[nH]n3)c(=O)n1CC2` [WX003], which IC50 [3] is on record?
A: 3.1 nM

Q: Which IC50 [3] does the source give for `CCOc1cc2c(cc1OC)-c1c/c(=N\c3c(C)cc(C)cc3C)n(CCNc3nc[nH]n3)c(=O)n1CCC2` [WX004] here?
A: 0.33 nM

Q: For `CCOc1cc2c(cc1OC)-c1c/c(=N\c3c(C)cc(C)cc3C)n(CCNC(=O)c3nnc[nH]3)c(=O)n1CC2` [WX015], which IC50 [3] is on record?
A: 0.36 nM

Q: For `CCOc1cc2c(cc1OC)-c1c/c(=N\c3c(C)cc(C)cc3C)n(CCNC(=O)c3cnn[nH]3)c(=O)n1CC2` [WX016], which IC50 [3] is on record?
A: 2.8 nM

Q: Which IC50 [3] does the source give for `CCOc1cc2c(cc1OC)-c1c/c(=N\c3c(C)cc(C)cc3C)n(CCNC(=O)c3ccn[nH]3)c(=O)n1CC2` [WX018] here?
A: 0.09 nM

Q: For `CCOc1cc2c(cc1OC)-c1c/c(=N\c3c(C)cc(C)cc3C)n(CCNC(=O)c3[nH]nnc3OC)c(=O)n1CC2` [WX026], which IC50 (CYP1A2) is on record?
A: 50 µM

Q: What about the IC50 (CYP2C9) of the same compound?
A: 20 µM

Q: What about the IC50 (CYP2C19) of the same compound?
A: 50 µM

Q: What about the IC50 (CYP2D6) of the same compound?
A: 50 µM

Q: What about the IC50 (CYP3A4) of the same compound?
A: 16 µM

Q: What does the source list for `CCOc1cc2c(cc1OC)-c1c/c(=N\c3c(C)cc(C)cc3C)n(CCNC(=O)c3c(O)nnn3C)c(=O)n1CC2` [WX036]?
A: clearance [4, 5]: 70.3 mL/min/kg; half-life [4, 5]: 18 min; bioavailability ([4]; oral administration 3 mg/kg): 7.5%; IC50 (CYP1A2): 50 µM; IC50 (CYP2C19): 50 µM; IC50 (CYP2D6): 50 µM; IC50 (CYP3A4): 50 µM

Q: Which IC50 [3] does the source give for `CCOc1cc2c(cc1OC)-c1c/c(=N\c3c(C)cc(C)cc3C)n(CCNC(=O)c3nnc[nH]3)c(=O)n1CCC2` [WX047] here?
A: 0.25 nM

Q: For `CCOc1cc2c(cc1OC)-c1c/c(=N\c3c(C)cc(C)cc3C)n(CCC(=O)Nc3nnc[nH]3)c(=O)n1CC2` [WX054], which IC50 [3] is on record?
A: 1.8 nM
